Earlier results on five compounds are cited in US20230405068A1, “RADIATION-INDUCED FIBROSIS TREATMENT” (Handelsselskabet af 20.10.2020 ApS, priority 2020, published 2023).

Read-outs that look alike come from different tables or passages of the source.

The subject of data set [1] is radiation-induced dermatitis. Particulars: rats.
Data set [2] has as its system radiation-induced skin fibrosis. Particulars: intramuscular injection; humans.
The test system is the same in data set [3]. Particulars: intramuscular injection; pigs.
Data set [4] has as its system radiation-induced dermatitis. As to conditions: mice; applied topically.

In the case of `N[C@@H](CCC(=O)N[C@@H](CS)C(=O)NCC(=O)O)C(=O)O` [glutathione], in the data set with radiation-induced injury, the mitochondrial lipid peroxidation entry is on record as “limit mitochondrial lipid peroxidation” and the “protection from radiation-induced injury” value was “protect from radiation-induced injury”.

Regarding `CC(=O)N[C@@H](CS)C(=O)O` [N-acetylcysteine], the “protection from radiation-induced dermatitis” value in data set [1] was “significantly protects”.

For `NCCCNCCSP(=O)(O)O` [amifostine], in the data set with radiation-induced injury, the mitochondrial lipid peroxidation result was “limit mitochondrial lipid peroxidation” and the “protection from radiation-induced injury” value was “protect from radiation-induced injury”.

For the compound “Sod1 (Cu—Zn) protein: Sod1 (Cu—Zn) protein given by intramuscular injection”, the “protection from radiation-induced skin fibrosis” value in data set [2] and in data set [3] was “protected” each time.

In the case of `CC1(C)CC[C@]2(NC(=O)C(C)(F)F)CC[C@]3(C)[C@H](C(=O)C=C4[C@@]5(C)C=C(C#N)C(=O)C(C)(C)[C@@H]5CC[C@]43C)[C@@H]2C1` [RTA 408, omaveloxolone], the “protection from radiation-induced dermatitis” value in data set [4] is on record as “allegedly protecting”.
